Measured values reported in patent US11192900B2, “Substituted 1,6-dihydropyridinones and 1,2-dihydroisoquinolinones as bet inhibitors” (NUVATION BIO INC., priority 2018, dated 2021).

Experiments:
[1] = target: BRD4-1 (Homo sapiens (Human), UniProt O60885); experiment: Bromodomain and Extraterminal Domain (BET) Binding Assay; settings: Table 3; read-out: BRD4-1 IC50
Method: (§1) The bromodomain binding assays were performed by Reaction Biology Corp., Malvern, Pa., USA (www.reactionbiology.com). The BET binding assays were conducted in 384 well microplates in assay buffer (50 mM HEPES-HCl, pH 7.5, 100 mM NaCl, 1 mg/ml BSA, 0.05% CHAPS, and 0.5% DMSO) with compounds added as DMSO stocks at a single concentration or with 10-point dose response titrations. BET protein or assay buffer were delivered to the appropriate wells of the microplate. Test compound was then delivered by acoustic technology via a Labcyte Echo550 liquid handler. The microplate was centrifuged for 5 min and pre-incubated for 30 min at RT with gentle shaking. The ligand (histone H4 peptide (1-21) K5/8/12/16Ac-biotin) was delivered and the microplate was again centrifuged for 5 min and allowed to incubate for 30 min at RT with gentle shaking. Donor beads were then added in the absence of light and the microplate was centrifuged and gently shaken. After 5 min, acceptor beads were added in the absence of light and the microplate was centrifuged and gently shakenin the dark for 60 min. The microplate was read using a Perkin Elmer EnSpire Alpha plate reader (λEx/λEm=680/520-620 nm). Percent inhibition was calculated relative to positive and negative controls on a per plate basis. For titration experiments, IC50 values were determined by fitting the percent inhibition versus compound concentration.

[2] = target: BRD4-2 (Homo sapiens (Human), UniProt O60885); experiment: as above; settings: Table 3; read-out: BRD4-2 IC50
Method: as §1

[3] = system: c-Myc; experiment: Measurement of c-Myc suppression after washoff (Western blot); type: cell-based, human; settings: MV4-11, 2 μM for 2 hr, washed, further 6 hr
Method: MV4-11 cells were incubated with 2 μM of JQ1, mivebresib or a test compound for 2 hr. The cells were then washed twice with fresh culture medium and further cultured for another 6 hr. Cells were extracted with SDS sample buffers and then subjected to Western blot analysis to measure c-Myc. Compounds 2, 3, 12, 17, 409, 411 and 412 were tested in these assays.

[4] = system: MV-4-11 human acute myeloid leukemia cell line; experiment: Second cell viability assay in MV-4-11 (Cell Titer-Glo); type: cell-based; settings: Homo sapiens; MV4-11, Cell Titer-Glo, 72 hrs; read-out: Cell Viability IC50 in MV4-11 cells
Method: The effects of test compounds were studied in a second cell viability assay in the MV-4-11 human acute myeloid leukemia cell line. The cells were harvested during the logarithmic growth period and counted. Cells were seeded at a count of 15000 cells per well/100 μl. After seeding, cells were incubated at 37° C., 5% CO2 for 1 hr. Cells were treated with test compounds at 8 concentrations within a desired concentration range (e.g. 5 nM-[…]) for generation of dose response curves by preparing serial dilutions of the test compound in DMSO which were further diluted with culture medium and then added to each well. The plate was further incubated for another 72 hrs in a humidified incubator at 37° C. and 5% CO2. The assay was terminated by addition of Cell Titer-Glo reagent (Promega, Madison, Wis.) at ¼ the volume of total medium per well. Contents were mixed, the plate was incubated for 10 min at room temperature and luminescence was measured. Cell viability data were plotted using GraphPad Prism (GraphPad Software, Inc., San Diego, Calif.). In addition, a nonlinear regression model with a sigmoidal dose response and variable slope within GraphPad Prism was used to calculate the IC50 value of individual test compounds.

IC50 [1]	IC50 [2]	IC50 [4]	Structure (SMILES)	c-Myc suppression activity after washoff [3]
188 nM	64 nM	–	C=CC(=O)Nc1ccc(Oc2ccc(F)cc2F)c(-c2cc(NC)c(=O)n(C)c2)c1 [Compound 1, N-(4-(2,4-difluorophenoxy)-3-(1-methyl-5-(methylamino)-6-oxo-1,6-dihydropyridin-3-yl)phenyl)acrylamide]	–
52 nM	117 nM	–	C#CC(=O)Nc1ccc(Oc2ccc(F)cc2F)c(-c2cc(NC)c(=O)n(C)c2)c1 [Compound 2, N-(4-(2,4-difluorophenoxy)-3-(1-methyl-5-(methylamino)-6-oxo-1,6-dihydropyridin-3-yl)phenyl)propiolamide]	less durable or no suppression activity
–	37 nM	–	C=CS(=O)(=O)Nc1ccc(Oc2ccc(OC)cc2)c(-c2cn(C)c(=O)c3ccccc23)c1 [Compound 12, N-(4-(4-methoxyphenoxy)-3-(2-methyl-1-oxo-1,2-dihydroisoquinolin-4-yl)phenyl)ethenesulfonamide]	less durable or no suppression activity
6 nM	26 nM	–	C=CS(=O)(=O)Nc1ccc(Oc2ccc(F)cc2F)c(-c2cc(N(C)C)c(=O)n(C)c2)c1 [Compound 16, N-(4-(2,4-difluorophenoxy)-3-(5-(dimethylamino)-1-methyl-6-oxo-1,6-dihydropyridin-3-yl)phenyl)ethenesulfonamide]	–
–	119 nM	84 nM	C=CS(=O)(=O)Nc1ccc(Oc2ccc(F)cc2F)c(-c2cc(N)c(=O)n(C)c2)c1 [Compound 17, N-(3-(5-amino-1-methyl-6-oxo-1,6-dihydropyridin-3-yl)-4-(2,4-difluorophenoxy)phenyl)ethenesulfonamide]	sustained c-Myc suppression activity
30 nM	15 nM	–	C=CC(=O)Nc1ccc(Oc2ccc(F)cc2F)c(-c2cc(N(C)C)c(=O)n(C)c2)c1 [Compound 29, N-(4-(2,4-difluorophenoxy)-3-(5-(dimethylamino)-1-methyl-6-oxo-1,6-dihydropyridin-3-yl)phenyl)acrylamide]	–
104 nM	57 nM	–	C=CC(=O)Nc1ccc(Oc2ccc(F)cc2)c(-c2cc(NC)c(=O)n(C)c2)c1 [Compound 30, N-(4-(4-fluorophenoxy)-3-(1-methyl-5-(methylamino)-6-oxo-1,6-dihydropyridin-3-yl)phenyl)acrylamide]	–
–	80 nM	273 nM	C/C=C/S(=O)(=O)Nc1ccc(Oc2ccc(F)cc2F)c(-c2cn(C)c(=O)c3ccccc23)c1 [Compound 86, (E)-N-(4-(2,4-difluorophenoxy)-3-(2-methyl-1-oxo-1,2-dihydroisoquinolin-4-yl)phenyl)prop-1-ene-1-sulfonamide]	–
424 nM	17 nM	97 nM	C=CC(=O)Nc1ccc(Oc2c(C)cc(F)cc2C)c(-c2cc(NC)c(=O)n(C)c2)c1 [Compound 167, N-(4-(4-fluoro-2,6-dimethylphenoxy)-3-(1-methyl-5-(methylamino)-6-oxo-1,6-dihydropyridin-3-yl)phenyl)acrylamide]	–
1710 nM	2170 nM	–	C=CC(=O)Nc1ccc(Nc2ccc(F)cc2F)c(-c2cn(C)c(=O)c3ccccc23)c1 [Compound 305, N-(4-(2,4-difluorophenylamino)-3-(2-methyl-1-oxo-1,2-dihydroisoquinolin-4-yl)phenyl)acrylamide]	–
12500 nM	13 nM	172 nM	C=CC(=O)Nc1ccc(Oc2c(C)cccc2C)c(-c2cn(C)c(=O)c3sc(C(=O)NCC)cc23)c1 [Compound 381, 4-(5-acrylamido-2-(2,6-dimethylphenoxy)phenyl)-N-ethyl-6-methyl-7-oxo-6,7-dihydrothieno[2,3-c]pyridine-2-carboxamide]	–
15900 nM	434 nM	–	C=CC(=O)Nc1ccc(Oc2c(C)cc(F)cc2C)c(-c2cn(C)c(=O)c3ccccc23)c1 [Compound 408, N-(4-(4-fluoro-2,6-dimethylphenoxy)-3-(2-methyl-1-oxo-1,2-dihydroisoquinolin-4-yl)phenyl)acrylamide]	–
–	758 nM	–	Cc1cccc(C)c1Oc1ccc(NC(=O)/C=C/CN(C)C)cc1-c1cn(C)c(=O)c2ccccc12 [Compound 410, (E)-4-(dimethylamino)-N-(4-(2,6-dimethylphenoxy)-3-(2-methyl-1-oxo-1,2-dihydroisoquinolin-4-yl)phenyl)but-2-enamide]	–
–	78 nM	254 nM	C=CC(=O)Nc1ccc(Oc2c(F)cccc2F)c(-c2cn(C)c(=O)c3ccccc23)c1 [Compound 583, N-(4-(2,6-difluorophenoxy)-3-(2-methyl-1-oxo-1,2-dihydroisoquinolin-4-yl)phenyl)acrylamide]	–
–	11 nM	45 nM	C#CC(=O)Nc1ccc(Oc2c(C)cccc2C)c(-c2cn(C)c(=O)c3cc(C(=O)NCC)sc23)c1 [Compound 587, 7-(2-(2,6-dimethylphenoxy)-5-propiolamidophenyl)-N-ethyl-5-methyl-4-oxo-4,5-dihydrothieno[3,2-c]pyridine-2-carboxamide]	–
7190 nM	12 nM	181 nM	C=CC(=O)Nc1ccc(Oc2c(C)cccc2C)c(-c2cn(C)c(=O)cc2OC(C)C)c1 [Compound 589, N-(4-(2,6-dimethylphenoxy)-3-(4-isopropoxy-1-methyl-6-oxo-1,6-dihydropyridin-3-yl)phenyl)acrylamide]	–
7370 nM	2 nM	–	C/C=C/C(=O)Nc1ccc(Oc2c(C)cccc2C)c(-c2cn(C)c(=O)c3cc(C(=O)NCC)sc23)c1 [Compound 611, (E)-7-(5-but-2-enamido-2-(2,6-dimethylphenoxy)phenyl)-N-ethyl-5-methyl-4-oxo-4,5-dihydrothieno[3,2-c]pyridine-2-carboxamide]	–
–	> 10000 nM	–	C=CC(=O)Nc1ccc(N(C)c2ccc(F)cc2F)c(-c2cn(C)c(=O)c3sc(C(=O)NCC)cc23)c1 [Compound 612, 4-(5-acrylamido-2-((2,4-difluorophenyl)(methyl)amino)phenyl)-N-ethyl-6-methyl-7-oxo-6,7-dihydrothieno[2,3-c]pyridine-2-carboxamide]	–
–	27 nM	6020 nM	C=CC(=O)Nc1ccc(Oc2ccc(F)cc2F)c(-n2cc(C)c(=O)c3ccccc32)c1 [Compound 613, N-(4-(2,4-difluorophenoxy)-3-(3-methyl-4-oxoquinolin-1(4H)-yl)phenyl)acrylamide]	–
11 nM	4 nM	38 nM	CCS(=O)(=O)Nc1ccc(Oc2ccc(F)cc2F)c(-n2cc(C)c(=O)c3ccccc32)c1 [Compound 616, N-(4-(2,4-difluorophenoxy)-3-(3-methyl-4-oxoquinolin-1(4H)-yl)phenyl) ethanesulfonamide]	–
–	> 10000 nM	–	C=CC(=O)n1cc(-c2cc(NS(=O)(=O)CC)ccc2Oc2ccc(F)cc2F)c2ccccc2c1=O [Compound 662, N-(3-(2-acryloyl-1-oxo-1,2-dihydroisoquinolin-4-yl)-4-(2,4-difluorophenoxy)phenyl)ethanesulfonamide]	–
–	–	–	CCS(=O)(=O)Nc1ccc(Oc2ccc(F)cc2F)c(-c2cn(C)c(=O)c3[nH]ccc23)c1 [mivebresib, reference compound]	rebound in c-Myc expression

Structure (SMILES)	IC50 [1]	IC50 [2]	IC50 [4]	c-Myc suppression activity after washoff [3]
C=CC(=O)Nc1ccc(Nc2c(C)cccc2C)c(-c2cn(C)c(=O)c3ccccc23)c1 [Compound 313, N-(4-(2,6-dimethylphenylamino)-3-(2-methyl-1-oxo-1,2-dihydroisoquinolin-4-yl)phenyl)acrylamide]	> 10000 nM	885 nM	–	–
C=CC(=O)Nc1ccc(Oc2c(C)cccc2C)c(-c2cn(C)c(=O)c3ccccc23)c1 [Compound 397, N-(4-(2,6-dimethylphenoxy)-3-(2-methyl-1-oxo-1,2-dihydroisoquinolin-4-yl)phenyl)acrylamide]	9710 nM	549 nM	–	–
